Experimental data: the supplement of paper PMC4862054
Several values for one entry are separate records, joined by “and”; a condition that tells them apart may be missing. Equal entries are not always repeated.

Columns and labels:
Settings in all cases: incubation time: 72 h
CAL-85-1 = experiment: normalised viability (% of control), CellTiter-Blue; higher = more viable cells (about 100 = DMSO control)
Method: (§1)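 DSRT, CellTiter-Blue viability, 72 h incubation. Signal is normalised to DMSO and benzethonium chloride controls. Value is the normalised response at dose 9.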

CAL-51 = experiment: as above
Method: as §1

DU-4475 [1] = experiment: as above
Method: as §1

HDQ-P1 [2] = experiment: as above
Method: as §1

MDA-MB-453 [3] = experiment: as above
Method: as §1

CAL-148 [4] = experiment: as above
Method: as §1

MDA-MB-231 [5] = experiment: drug sensitivity score (DSS), CellTiter-Glo (DSS (AUC-based score)); higher = stronger drug effect (viability inhibition or cytotoxicity); extreme values may be limits of the assay
How it was run: (§2)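 Plates with 384 wells held compound at 5 concentrations in 10-fold steps over a 10,000-fold range specific to each compound. Breast cancer cell lines were added in 20 µl suspension and incubated 72 h, then read for CellTox Green and CellTiter-Glo signals, with each plate normalised to 0.1 % DMSO and a positive kill control. The drug sensitivity score is based on the area under the fitted dose-response curve.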

HCC1143 = experiment: as above
How it was run: as §2

SK-BR-3 = experiment: as above
How it was run: as §2

HCC1937 [6] = experiment: as above
How it was run: as §2

DU-4475 [7] = experiment: as above
How it was run: as §2

MDA-MB-436 = experiment: as above
How it was run: as §2

CAL-120 = experiment: as above
How it was run: as §2

MDA-MB-468 = experiment: as above
How it was run: as §2

HDQ-P1 [8] = experiment: as above
How it was run: as §2

MDA-MB-453 [9] = experiment: as above
How it was run: as §2

CAL-148 [10] = experiment: as above
How it was run: as §2

Hs578T [11] = experiment: as above
How it was run: as §2

MDA-MB-231 [12] = experiment: drug sensitivity score (DSS), CellTox Green (DSS (AUC-based score)); higher = stronger drug effect (viability inhibition or cytotoxicity); extreme values may be limits of the assay
How it was run: as §2

HCC1937 [13] = experiment: as above
How it was run: as §2

DU-4475 [14] = experiment: as above
How it was run: as §2

BT-474 = experiment: as above
How it was run: as §2

BT-549 = experiment: as above
How it was run: as §2

MDA-MB-453 [15] = experiment: as above
How it was run: as §2

CAL-148 [16] = experiment: as above
How it was run: as §2

Hs578T [17] = experiment: as above
How it was run: as §2

SMILES: O=NN(CCCl)C(=O)NCCCl [Carmustine] (10000 nM)
- normalised viability (CAL-85-1): 95.6%
- normalised viability (CAL-51): 98.2%
- normalised viability (DU-4475 [1]): 105%
- normalised viability (HDQ-P1 [2]): 114%
- normalised viability (MDA-MB-453 [3]): 115%
- normalised viability (CAL-148 [4]): 109%

SMILES: CC1=C2C[C@H]3[C@@H](CC=C4C[C@@H](O)CC[C@@]43C)[C@@H]2CC[C@]12O[C@@H]1C[C@H](C)CN[C@H]1[C@H]2C [Cyclopamine] (10000 nM)
- normalised viability (CAL-85-1): 94.8%
- normalised viability (CAL-51): 102%
- normalised viability (DU-4475 [1]): 107%
- normalised viability (HDQ-P1 [2]): 148%
- normalised viability (MDA-MB-453 [3]): 119%
- normalised viability (CAL-148 [4]): 116%

SMILES: Cc1sc2c(c1C)C(c1ccc(Cl)cc1)=N[C@@H](CC(=O)OC(C)(C)C)c1nnc(C)n1-2 [(+)JQ1] (10000 nM)
- normalised viability (CAL-85-1): 44.4%
- normalised viability (CAL-51): 68.3%
- normalised viability (DU-4475 [1]): 1.08%
- normalised viability (HDQ-P1 [2]): 108%
- normalised viability (MDA-MB-453 [3]): 18.3%
- normalised viability (CAL-148 [4]): 27.6%

SMILES: CC1(C)CNc2cc(NC(=O)c3cccnc3NCc3ccncc3)ccc21 [Motesanib] (10000 nM)
- normalised viability (CAL-85-1): 78.2%
- normalised viability (CAL-51): 97.2%
- normalised viability (DU-4475 [1]): 88.6%
- normalised viability (HDQ-P1 [2]): 92.2%
- normalised viability (MDA-MB-453 [3]): 69.4%
- normalised viability (CAL-148 [4]): 91.8%

SMILES: CC(=O)O[C@@]12CO[C@@H]1C[C@H](O)[C@@]1(C)C(=O)[C@H](O)C3=C(C)[C@@H](OC(=O)[C@H](O)[C@@H](NC(=O)OC(C)(C)C)c4ccccc4)C[C@@](O)([C@@H](OC(=O)c4ccccc4)[C@H]21)C3(C)C [Docetaxel] (1000 nM)
- normalised viability (CAL-85-1): 32.1% and 32.3%
- normalised viability (CAL-51): 16.2% and 12.2%
- normalised viability (DU-4475 [1]): 11.7% and 10.5%
- normalised viability (HDQ-P1 [2]): 51.3% and 42.4%
- normalised viability (MDA-MB-453 [3]): 23.1% and 24.4%
- normalised viability (CAL-148 [4]): 23.1% and 21.2%

SMILES: O=C1CN2Cc3c(ccc(Cl)c3Cl)N=C2N1 [Anagrelide] (10000 nM)
- normalised viability (CAL-85-1): 89.8%
- normalised viability (CAL-51): 83.8%
- normalised viability (DU-4475 [1]): 108%
- normalised viability (HDQ-P1 [2]): 118%
- normalised viability (MDA-MB-453 [3]): 90.9%
- normalised viability (CAL-148 [4]): 115%

SMILES: Nc1nc2[nH]cnc2c(=S)[nH]1 [Thioguanine] (10000 nM)
- normalised viability (CAL-85-1): 61.8%
- normalised viability (CAL-51): 54.2%
- normalised viability (DU-4475 [1]): 73.8%
- normalised viability (HDQ-P1 [2]): 58.5%
- normalised viability (MDA-MB-453 [3]): 73.1%
- normalised viability (CAL-148 [4]): 42%

SMILES: CC[C@@H]1C(=O)OC[C@@H]1Cc1cncn1C [Pilocarpine] (40000 nM)
- normalised viability (CAL-85-1): 64.4%
- normalised viability (CAL-51): 84.5%
- normalised viability (DU-4475 [1]): 68.7%
- normalised viability (HDQ-P1 [2]): 135%
- normalised viability (MDA-MB-453 [3]): 43.7%
- normalised viability (CAL-148 [4]): 73.2%

SMILES: Oc1ncnc2[nH]ncc12 [Allopurinol] (10000 nM)
- normalised viability (CAL-85-1): 109%
- normalised viability (CAL-51): 92.5%
- normalised viability (DU-4475 [1]): 115%
- normalised viability (HDQ-P1 [2]): 99.2%
- normalised viability (MDA-MB-453 [3]): 108%
- normalised viability (CAL-148 [4]): 118%

SMILES: Nc1ncn([C@@H]2O[C@H](CO)[C@@H](O)[C@H]2O)c(=O)n1 [Azacitidine] (10000 nM)
- normalised viability (CAL-85-1): 102%
- normalised viability (CAL-51): 102%
- normalised viability (DU-4475 [1]): 77.7%
- normalised viability (HDQ-P1 [2]): 68.4%
- normalised viability (MDA-MB-453 [3]): 82%
- normalised viability (CAL-148 [4]): 82.8%

SMILES: Cn1cnc2c(F)c(Nc3ccc(Br)cc3Cl)c(C(=O)NOCCO)cc21 [Selumetinib] (10000 nM)
- normalised viability (CAL-85-1): 49.6%
- normalised viability (CAL-51): 80.3%
- normalised viability (DU-4475 [1]): 0.33%
- normalised viability (HDQ-P1 [2]): 65.7%
- normalised viability (MDA-MB-453 [3]): 75.8%
- normalised viability (CAL-148 [4]): 89.9%

SMILES: COc1cc2c(cc1O)CC[C@@H]1[C@@H]2CC[C@]2(C)[C@@H](O)CC[C@@H]12 [2-methoxyestradiol] (10000 nM)
- normalised viability (CAL-85-1): 57.5%
- normalised viability (CAL-51): 20.6%
- normalised viability (DU-4475 [1]): 28.7%
- normalised viability (HDQ-P1 [2]): 47.3%
- normalised viability (MDA-MB-453 [3]): 36.6%
- normalised viability (CAL-148 [4]): 58.1%

SMILES: Cn1cc(C2=Nc3cc(NC(=O)C(N)C4CCCCC4)cc4c3C2=CNNC4=O)cn1 (centres undefined) (10000 nM)
- normalised viability (CAL-85-1): 48.9%
- normalised viability (CAL-51): 30%
- normalised viability (DU-4475 [1]): 41.9%
- normalised viability (HDQ-P1 [2]): 35.2%
- normalised viability (MDA-MB-453 [3]): 16.3%
- normalised viability (CAL-148 [4]): 28.1%

SMILES: CC(C)(C)c1cnc(CSc2cnc(NC(=O)C3CCNCC3)s2)o1 [SNS-032] (10000 nM)
- normalised viability (CAL-85-1): 2.06%
- normalised viability (CAL-51): 4.67%
- normalised viability (DU-4475 [1]): -0.36%
- normalised viability (HDQ-P1 [2]): 12.7%
- normalised viability (MDA-MB-453 [3]): 18.6%
- normalised viability (CAL-148 [4]): 21.8%

SMILES: Cn1cc(C2=Nc3cc(NC(=O)C(N)C4CCCCC4)cc4c3C2=CNNC4=O)cn1 (centres undefined)
- drug sensitivity score (MDA-MB-231 [5]): 7.52
- drug sensitivity score (HCC1143): 7.81
- drug sensitivity score (SK-BR-3): 19.1
- drug sensitivity score (HCC1937 [6]): 4.78
- drug sensitivity score (DU-4475 [7]): 2.68
- drug sensitivity score (MDA-MB-436): 9.88
- drug sensitivity score (CAL-120): 6.28
- drug sensitivity score (MDA-MB-468): 14.4
- drug sensitivity score (HDQ-P1 [8]): 3.25
- drug sensitivity score (MDA-MB-453 [9]): 14.3
- drug sensitivity score (CAL-148 [10]): 0
- drug sensitivity score (Hs578T [11]): 12.1
- drug sensitivity score (MDA-MB-231 [12]): 8.99
- drug sensitivity score (HCC1937 [13]): 0
- drug sensitivity score (DU-4475 [14]): 0
- drug sensitivity score (BT-474): 0
- drug sensitivity score (BT-549): 4.35
- drug sensitivity score (MDA-MB-453 [15]): 3.06
- drug sensitivity score (CAL-148 [16]): 0
- drug sensitivity score (Hs578T [17]): 1.58

SMILES: Nc1nc2[nH]cnc2c(=S)[nH]1 [Thioguanine]
- drug sensitivity score (MDA-MB-231 [5]): 10.2
- drug sensitivity score (HCC1143): 0.8
- drug sensitivity score (SK-BR-3): 0
- drug sensitivity score (HCC1937 [6]): 8.45
- drug sensitivity score (DU-4475 [7]): 4.33
- drug sensitivity score (MDA-MB-436): 4.37
- drug sensitivity score (CAL-120): 6.5
- drug sensitivity score (MDA-MB-468): 1.72
- drug sensitivity score (HDQ-P1 [8]): 7.16
- drug sensitivity score (MDA-MB-453 [9]): 1.4
- drug sensitivity score (CAL-148 [10]): 1.29
- drug sensitivity score (Hs578T [11]): 6.84
- drug sensitivity score (MDA-MB-231 [12]): 0
- drug sensitivity score (HCC1937 [13]): 0
- drug sensitivity score (DU-4475 [14]): 0
- drug sensitivity score (BT-474): 0
- drug sensitivity score (BT-549): 0
- drug sensitivity score (MDA-MB-453 [15]): 0
- drug sensitivity score (CAL-148 [16]): 0
- drug sensitivity score (Hs578T [17]): 0
